From patent US20250009743A1, “METHODS OF TREATING CANCERS USING STING AGONISTS” (Dana-Farber Cancer Institute, Inc., priority 2021, published 2025) come the findings set out here.

The test system of assay [1] is WT BMDMs and STING^−/− BMDMs. The assay is described as follows: WT and STING^−/− BMDMs cultured in CM from ID8-Brca1^−/− cells. It counts as cell-based, mouse. Particulars: CM of control or olaparib-treated ID8-Brca1^−/− cells; FIG. 21I. As for the experimental part: For ex vivo culture of mouse macrophages, bone marrow cells were isolated from FVB/NJ mice and cultured in DMEM containing 10% FBS, 55 μM 2-Mercaptoethanol and 20 ng/ml M-CSF. BMDMs (bone marrow derived macrophages) were harvested on day 7 and further cultured in 2.0 ml control medium (90% DMEM, 10% FBS, 55 μM 2-Mercaptoethanol and 5 ng/ml M-CSF) described above or the medium containing 50% tumor cell conditioned medium for 72 hrs before analysis. For the tumor cell conditioned medium, about 3×10^5 tumor cells were cultured in 6-well plate for 24 hrs and then treated with DMSO or olaparib. After 24 hrs incubation with DMSO or olaparib, the tumor cells were washed twice with PBS and cultured in DMEM containing 10% FBS for 48 hrs. The tumor cell conditioned medium was collected by centrifugation at 1,500 g for 5 min at 4° C. to remove all the debris and cells. For the cytokine blocking experiment, monoclonal antibodies that specific to each cytokine were added to the tumor cell conditioned medium before it was applied to culture macrophages.

A further assay relates to PBM tumor cells. The assay is described as follows: Measurement of IC50 value in PBM tumor cells (CellTiter-Glo). It counts as cell-based. Conditions: Mus musculus; reference value for the PBM-R3 fold; 72 h. As for the experimental part: (§1) Tumor cells were seeded in 96-well plates at a density of 2000-3000/well and allowed to adhere overnight. Cells were then exposed to appropriate concentrations of therapeutic agents (or vehicle control) with continuous exposure for 72 h. Growth inhibition was measured by CellTiter-Glo® 2.0 Cell Viability Assay from Promega according to manufactory's introduction. IC50 values were calculated using non-linear regression model (logarithmic inhibitor vs. normalized response-variable slope) in Graphpad Prism 9.

For assay [2], the system named is PBM-R tumor cells. Nature of the assay: Measurement of IC50 value in PBM-R tumor cells (CellTiter-Glo). It counts as cell-based, mouse. On the procedure: as §1
Assay [3] relates to PBM-R tumor cells. The assay is described as follows: γ-H2AX flow cytometry in PBM-R cells. The format is cell-based, mouse. Conditions: 1 μM olaparib 24 hours. On the procedure: Analysis of p-STAT3 and γ-H2AX (p-HA2X-Ser139) was performed according to a two-step protocol for intracellular phosphorylated signaling proteins (Thermo Fisher). Briefly, cells were incubated with LIVE/DEAD Fixable Aqua Dead Cell Stain for 30 min. After washing, cells were suspended in 100 μl PBS and then fixed by adding an equal volume of IC Fixation Buffer (CAT #00-822-49, Thermo Fisher) directly to cells and incubated at room temperature for 20 min followed by fixing with ice-cold 90% methanol in PBS for 30 min. The fixed cells were blocked and stained with p-STAT3 or γ-H2AX antibodies for flow cytometry analysis as described above.

The next assay concerns BP tumor cells. Nature of the assay: Pro-inflammatory cytokine expression in BP tumor cells (RT-qPCR, IFNβ ELISA). Particulars: olaparib two days. It counts as cell-based, mouse. As for the experimental part: Total RNA was extracted using RNeasy® Plus Mini Kit (QIAGEN, #74134). An iScript Reverse Transcription Supermix (Bio-Rad, #1708841) was used for the first-strand cDNA synthesis with 1 μg total RNA. Real-time PCR was performed using SYBR™ Select Master Mix (Thermo Fisher, #4472908) with gene-specific primers (mouse/16, forward 5′-[…]-3′, reverse 5′-[…]-3′; mouse//1b, forward 5′-[…]-3′, reverse 5′-[…]-3′; mouse Cxcl1, forward 5′-[…]-3′, reverse 5′-[…]-3′; mouse Ifnb, forward 5′-[…]-3′, reverse 5′-[…]-3′; mouse Ccl5, forward 5′-[…]-3′, reverse 5′-[…]-3′; mouse Cxcl10, forward 5′-[…]-3′, reverse 5′-[…]-3′; mouse Actb, forward 5′-[…]-3′, reverse 5′-[…]-3′; human IL6, forward 5′-[…]-3′, reverse 5′-[…]-3′; human IL1B, forward 5′-[…]-3′, reverse 5′-[…]-3′; human CXCL1, forward 5′-[…]-3′, reverse 5′-[…]-3′; human GAPDH, forward 5′-[…]-3′, reverse 5′-[…]-3′). Relative mRNA levels were calculated using the […]. Mouse Actb and human GAPDH were used as endogenous controls for mouse and human samples, respectively.
Tumor cells were treated with olaparib or DMSO vehicle control for two days. To assess IFNβ production by tumor cells, cell culture supernatants were harvested and subjected to centrifugation at 1,500×g for 10 min at 4° C. to remove floating cells and debris. IFNβ was then detected via mouse IFNβ ELISA Kit (Thermo Fisher, #424001) according to manufacturer's instructions.

Assay [4] has as its system BP-sgControl and BP-sgSTING cells. Nature of the assay: CellTiter-Glo cell viability of BP-sgControl and BP-sgSTING cells. It counts as cell-based, mouse. Particulars: effect of loss of tumor cell-intrinsic STING; three days; FIG. 11B. As for the experimental part:
Tumor cells were seeded in 96-well plates at a density of 5000 cells per well and allowed to adhere overnight. Cells were then treated for 72 hours with indicated drugs at the concentrations shown. Cell viability was measured using CellTiter-Glo® 2.0 Cell Viability Assay (Promega, #G9242) according to the manufacturer's instruction. Growth inhibition was calculated by comparing the […] of drug-treated wells to that of untreated controls 1 set at 100%. Dose response curves and IC50 values were generated using a non-linear regression model in GraphPad Prism 8.

As for `COc1cc2cc(C(=O)CCC(=O)O)sc2cc1OC` [MSA-2], in assay [1], the “M2-like TAM polarization of WT BMDMs” value is “successfully reversed”.
As to `O=C(c1cc(Cc2n[nH]c(=O)c3ccccc23)ccc1F)N1CCN(C(=O)C2CC2)CC1` [olaparib], the IC50 in the assay on PBM tumor cells came to 560 nM; in the assay with PBM-R tumor cells [2] (Mus musculus, PBM-R3 tumor cells, 72 h, FIG. 15C), 4190 nM. In addition, in the assay on PBM-R tumor cells [2] (11 out of 12 PBM-R lines sensitive in vitro, FIG. 15C), the “IC50 values of 11 out of 12 PBM-R tumor lines” value is given as “comparable to PBM tumor cells”. This molecule also gave an IC50 fold in the assay on PBM-R tumor cells [2] (PBM-R3 IC50 relative to 0.56 μM) of 7.48 folds. Moreover, the “DNA damage (γ-H2AX)” value with PBM-R tumor cells [3] (PBM-R3 cells) is recorded as “a little DNA damage signaling”; in the assay with PBM-R tumor cells [3] (PBM-R tumor cells), “significantly increased DNA damage”. For the same molecule, the “IFNB, Ccl5 and Cxcl10 in BP-sgSTING cells” value in the assay with BP tumor cells (BP-sgSTING cells, FIG. 11D-F) is reported as “failed to up-regulate”. In the assay on BP tumor cells (control medium or naive BMDM-CM, FIG. 6E), the “pro-inflammatory cytokines (Ifnb, Ccl5 and Cxcl10) in BP tumor cells” value was “marked up-regulation”. Further, the “sensitivity to olaparib in vitro (cell viability)” value in assay [4] is “did not affect sensitivity”.
